Source: PubChem BioAssay AID296 (DTP/NCI, 2004)
Several values for one entry are separate records, joined by “and”; a condition that tells them apart may be missing. Equal values may be shown once. Inconclusive results are not listed.

System: MX-1 breast xenograft, nude mice, tumor weight T/C
Experiment: NCI In Vivo Anticancer Drug Screen. Data for tumor model Human Mammary Carcinoma MX-1 Xenograft (intrarenal inoculation) in NU/NU Swiss (nude) mice
Settings: endpoint: mean tumor weight change, higher = larger tumour
Outline: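 Tumor-bearing mice were treated with test compound alongside a vehicle-treated control group. Survival or tumor size was measured, and activity is expressed as the treated-group value divided by the control-group value.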

[1] = dose: 12.5 mg/kg/injection, schedule: Q04DX003 (sc), vehicle: saline
[2] = dose: 25.0 mg/kg/injection, schedule: Q04DX003 (sc), vehicle: saline
[3] = dose: 300.0 mg/kg/injection, schedule: Q04DX003 (sc), vehicle: Klucel (hydroxypropylcellulose) (HPC)

For `COC(=O)C[C@](O)(CCC(C)(C)O)C(=O)O[C@@H]1C(OC)=C[C@]23CCCN2CCc2cc4c(cc2[C@H]13)OCO4`, the T/C (dose: 0.15 mg/kg/injection, schedule: Q04DX003 (sc), vehicle: saline) was 123 % of control, the T/C (dose: 0.31 mg/kg/injection, schedule: Q04DX003 (sc), vehicle: saline) was 93 % of control and the T/C (dose: 0.63 mg/kg/injection, schedule: Q04DX003 (sc), vehicle: saline) was 119 % of control. The T/C (dose: 1.25 mg/kg/injection, schedule: Q04DX003 (sc), vehicle: saline) was 97 % of control.
`OC(CBr)C(O)C(O)C(O)CBr` (configuration not stated) was tested, and the T/C (dose: 15.0 mg/kg/injection, schedule: Q01DX010 (sc), vehicle: Klucel (hydroxypropylcellulose) (HPC)) was 39 % of control and 42 % of control, the T/C (dose: 800.0 mg/kg/injection, schedule: Q01DX010 (sc), vehicle: Klucel (hydroxypropylcellulose) (HPC)) was -100 % of control and the T/C (dose: 1600.0 mg/kg/injection, schedule: Q01DX010 (sc), vehicle: Klucel (hydroxypropylcellulose) (HPC)) was -87 % of control.
With `O=C(O)C1CC(c2ccccc2)=NN1c1ccccc1` (configuration not stated) the T/C (dose: 200.0 mg/kg/injection, schedule: Q04DX003 (sc), vehicle: water) was 72 % of control and the T/C (dose: 400.0 mg/kg/injection, schedule: Q04DX003 (sc), vehicle: water) was 72 % of control.
`C[C@@H]1C[C@@H]([C@H](O)CC2CC(=O)NC(=O)C2)C(=O)[C@@H](C)C1` was tested, and the T/C (dose: 37.5 mg/kg/injection, schedule: Q04DX003 (sc), vehicle: saline) was 105 % of control, the T/C (dose: 75.0 mg/kg/injection, schedule: Q04DX003 (sc), vehicle: saline) was 69 % of control and the T/C (dose: 150.0 mg/kg/injection, schedule: Q04DX003 (sc), vehicle: saline) was 97 % of control.
For `NC(=O)c1ncn2c(=O)n(CCCl)nnc12`, the T/C (dose: 25.0 mg/kg/injection, schedule: Q04DX003 (sc), vehicle: suspension in saline) was 69 % of control and the T/C (dose: 50.0 mg/kg/injection, schedule: Q04DX003 (sc), vehicle: suspension in saline) was 30 % of control.
For `[N-]=[N+]=CC(=O)CCC(N)C(=O)O` (configuration not stated), the T/C (dose: 0.1 mg/kg/injection, schedule: Q01DX010 (sc), vehicle: saline) was -45 % of control, the T/C (dose: 0.1 mg/kg/injection, schedule: Q02DX005 (sc), vehicle: saline) was 3 % of control and the T/C (dose: 0.2 mg/kg/injection, schedule: Q01DX010 (sc), vehicle: saline) was -64 % of control. For the same molecule, the T/C (dose: 0.2 mg/kg/injection, schedule: Q02DX005 (sc), vehicle: saline) was -13 % of control, the T/C (dose: 0.4 mg/kg/injection, schedule: Q01DX010 (sc), vehicle: saline) was -80 % of control and the T/C (dose: 0.8 mg/kg/injection, schedule: Q02DX005 (sc), vehicle: saline) was -90 % of control. The T/C (dose: 1.6 mg/kg/injection, schedule: Q02DX005 (sc), vehicle: saline) was -92 % of control, the T/C (dose: 3.12 mg/kg/injection, schedule: Q04DX003 (sc), vehicle: DMSO) was 11 % of control and the T/C (dose: 3.13 mg/kg/injection, schedule: Q04DX003 (sc), vehicle: saline) was 1 % of control. For the same molecule, the T/C (dose: 3.2 mg/kg/injection, schedule: Q02DX005 (sc), vehicle: saline) was -100 % of control, the T/C (dose: 6.25 mg/kg/injection, schedule: Q04DX003 (sc), vehicle: DMSO) was 15 % of control and the T/C (dose: 6.25 mg/kg/injection, schedule: Q04DX003 (sc), vehicle: saline) was 1 % of control. The T/C (dose: 12.5 mg/kg/injection, schedule: Q04DX003 (sc), vehicle: DMSO) was 18 % of control, the T/C [1] was 1 % of control and the T/C (dose: 25.0 mg/kg/injection, schedule: Q04DX003 (sc), vehicle: DMSO) was 7 % of control. For the same molecule, the T/C [2] was -7 % of control.
`CC(C)CCCCCCCCCCCCC(=O)NCC(=O)NC1C(C)OC(Nc2ncnc3nc[nH]c23)C(O)C1O` (configuration not stated) was tested, and the T/C (dose: 1.0 mg/kg/injection, schedule: Q01DX010 (sc), vehicle: distilled water + Tween-80) was 68 % of control, the T/C (dose: 2.0 mg/kg/injection, schedule: Q01DX010 (sc), vehicle: distilled water + Tween-80) was 75 % of control and the T/C (dose: 4.0 mg/kg/injection, schedule: Q01DX010 (sc), vehicle: distilled water + Tween-80) was 55 % of control. The T/C (dose: 8.0 mg/kg/injection, schedule: Q01DX010 (sc), vehicle: distilled water + Tween-80) was 25 % of control.
`Nc1n[nH]c(N)n1` was tested, and the T/C (dose: 200.0 mg/kg/injection, schedule: Q01DX010 (sc), vehicle: saline) was 92 % of control, the T/C (dose: 400.0 mg/kg/injection, schedule: Q01DX010 (sc), vehicle: saline) was 94 % of control and the T/C (dose: 800.0 mg/kg/injection, schedule: Q01DX010 (sc), vehicle: saline) was 111 % of control.
With `CC1OC(=O)C(C(C)C)NC(=O)C(C(C)C)OC(=O)C(C(C)C)NC(=O)C(C)OC(=O)C(C(C)C)NC(=O)C(C(C)C)OC(=O)C(C(C)C)NC(=O)C(C)OC(=O)C(C(C)C)NC(=O)C(C(C)C)OC(=O)C(C(C)C)NC1=O` (configuration not stated) the T/C (dose: 2.5 mg/kg/injection, schedule: Q01DX010 (sc), vehicle: saline with Tween-80) was 84 % of control, the T/C (dose: 5.0 mg/kg/injection, schedule: Q01DX010 (sc), vehicle: saline with Tween-80) was 150 % of control and the T/C (dose: 10.0 mg/kg/injection, schedule: Q01DX010 (sc), vehicle: saline with Tween-80) was 95 % of control and 112 % of control.
`Oc1c(Cl)cc(C(c2cc(Cl)c(O)c(Cl)c2)C(c2cc(Cl)c(O)c(Cl)c2)c2cc(Cl)c(O)c(Cl)c2)cc1Cl` was tested, and the T/C [3] was 108 % of control, the T/C (dose: 600.0 mg/kg/injection, schedule: Q04DX003 (sc), vehicle: Klucel (hydroxypropylcellulose) (HPC)) was 79 % of control and the T/C (dose: 1200.0 mg/kg/injection, schedule: Q04DX003 (sc), vehicle: Klucel (hydroxypropylcellulose) (HPC)) was 73 % of control. For the same molecule, the T/C (dose: 2400.0 mg/kg/injection, schedule: Q04DX003 (sc), vehicle: Klucel (hydroxypropylcellulose) (HPC)) was 88 % of control.
For `O=S(=O)(O)c1cc(N=C=S)ccc1/C=C/c1ccc(N=C=S)cc1S(=O)(=O)O`, the T/C (dose: 150.0 mg/kg/injection, schedule: Q04DX003 (ip), vehicle: saline) was 47 % of control.
In the case of `COC(=O)C12OCC34C(CC5C(C)=CC(=O)C(O)C5(C)C3C(O)C1O)OC(=O)C(OC(=O)CC(C)C)C24` (configuration not stated), the T/C (dose: 1.5 mg/kg/injection, schedule: Q04DX003 (sc), vehicle: saline + alcohol) is reported as 107 % of control and the T/C (dose: 3.0 mg/kg/injection, schedule: Q04DX003 (sc), vehicle: saline + alcohol) is reported as 58 % of control.
`C=C1C(=O)OC2CC(C)C3C4OC4C(O)C3(C)C(O)C12` (configuration not stated) was tested, and the T/C (dose: 100.0 mg/kg/injection, schedule: Q04DX003 (sc), vehicle: saline with Tween-80) was 113 % of control, the T/C (dose: 200.0 mg/kg/injection, schedule: Q04DX003 (sc), vehicle: saline with Tween-80) was 116 % of control and the T/C (dose: 400.0 mg/kg/injection, schedule: Q04DX003 (sc), vehicle: saline with Tween-80) was 101 % of control.
With `OCC1OC(n2cnc3cc(Cl)c(Cl)cc32)C(O)C1O` (configuration not stated) the T/C (dose: 300.0 mg/kg/injection, schedule: Q04DX003 (sc), vehicle: saline with Tween-80) was 156 % of control, the T/C (dose: 600.0 mg/kg/injection, schedule: Q04DX003 (sc), vehicle: saline with Tween-80) was 114 % of control and 118 % of control and the T/C (dose: 1200.0 mg/kg/injection, schedule: Q04DX003 (sc), vehicle: saline with Tween-80) was 114 % of control. For the same molecule, the T/C (dose: 2400.0 mg/kg/injection, schedule: Q04DX003 (sc), vehicle: saline with Tween-80) was 66 % of control.
With `CN1CCc2c(c3ccccc3c3ccccc23)C1` the T/C (dose: 150.0 mg/kg/injection, schedule: Q04DX003 (sc), vehicle: Klucel (hydroxypropylcellulose) (HPC)) was 30 % of control and the T/C [3] was 45 % of control.
In the case of `CCOC(=O)c1ccc(NC(=O)Nc2nccs2)cc1`, the T/C (dose: 25.0 mg/kg/injection, schedule: Q01DX010 (sc), vehicle: saline with Tween-80) is reported as 100 % of control, the T/C (dose: 100.0 mg/kg/injection, schedule: Q01DX010 (sc), vehicle: saline with Tween-80) is reported as 97 % of control and 108 % of control and the T/C (dose: 200.0 mg/kg/injection, schedule: Q01DX010 (sc), vehicle: saline with Tween-80) is reported as 63 % of control. The T/C (dose: 400.0 mg/kg/injection, schedule: Q01DX010 (sc), vehicle: saline with Tween-80) was 186 % of control.
For `OCCN1CCN(CC/C=C2/c3ccccc3Sc3ccc(Cl)cc32)CC1`, the T/C [1] was 115 % of control, the T/C [2] was 47 % of control and the T/C (dose: 50.0 mg/kg/injection, schedule: Q04DX003 (sc), vehicle: saline) was 44 % of control and 51 % of control.
For `COC1OC(CO)C(O)C(NC(=O)N(C)N=O)C1O` (configuration not stated), the T/C (dose: 225.0 mg/kg/injection, schedule: Q04DX003 (sc), vehicle: saline) was 45 % of control, the T/C (dose: 900.0 mg/kg/injection, schedule: Q04DX003 (sc), vehicle: saline) was 18 % of control and 20 % of control (2×) and the T/C (dose: 1800.0 mg/kg/injection, schedule: Q04DX003 (sc), vehicle: saline) was 3 % of control and 4 % of control.
`Nc1nc2c(ncn2C2OC(CO)C(O)C2O)c(=O)[nH]1.Nc1nc2c(ncn2C2OC(CO)C(O)C2O)c(=O)[nH]1.[NH2-].[NH2-].[Pt+2]` (configuration not stated) was tested, and the T/C (dose: 300.0 mg/kg/injection, schedule: Q04DX003 (sc), vehicle: water) was 68 % of control, the T/C (dose: 600.0 mg/kg/injection, schedule: Q04DX003 (sc), vehicle: water) was 22 % of control and the T/C (dose: 1200.0 mg/kg/injection, schedule: Q04DX003 (sc), vehicle: water) was 3 % of control.
In the case of `NCCCNCCSP(=O)(O)O`, the T/C (dose: 100.0 mg/kg/injection, schedule: Q04DX003 (sc), vehicle: saline) is reported as 98 % of control, the T/C (dose: 200.0 mg/kg/injection, schedule: Q04DX003 (sc), vehicle: saline) is reported as 80 % of control and the T/C (dose: 400.0 mg/kg/injection, schedule: Q04DX003 (sc), vehicle: saline) is reported as 91 % of control.
